Source: US6610681B1, “Neurotherapeutic clavulanate composition and method” (Revaax Pharmaceuticals, LLC, priority 1999, dated 2003)
Like-named read-outs stand apart in the source and are kept apart here.

What was measured:
male Wistar rats [1] = assay: elevated plus-maze; type: in vivo, rat
From the text: The elevated plus-maze was developed for screening anxiolytic and anxiogenic drug effects in the rat (Pellow et al., 1985). The method has been validated behaviorally, physiologically, and pharmacologically. The plus-maze consists of two open arms and two enclosed arms. […] Conversely, anxiogenic compounds like yohimbin or amphetamines reduce open arm entries and time spent in the open arms.
Male Wistar rats weighing 250-300 g were group housed in a normal 12:12 light-dark cycle with light on at 0800 hr and provided food and water ad libitum. The plus-maze consisted of two open arms, 50 cm long, 10 cm wide, […]. The two closed arms had the same dimensions but included a roof. The Plexiglas for the closed arms was painted black. Each pair of arms was arranged opposite to each other to form the plus-maze. The maze was elevated to a height of 50 cm. Eighteen animals were tested in the plus-maze 90 min following the IP injection of 1.0 μg/kg CLAV, 50 or vehicle control in a volume of ca. 0.3 ml. The order of treatments was counter balanced with at least 48 hrs between injections. At the start of the experiment, the animal was placed at the end of one of the open arms. Over a five min observation period, animals were scored for the latency to enter the closed arm, time spent in the closed arm and the number of open arm entries following the first occupation of the closed arm. The study produced tables of repeated measures. The data between treatments were compared with a two-way, repeated measures ANOVA followed by Bonferroni post hoc tests.
Chlordiazepoxide (Librium®) is a commonly prescribed anxiolytic that has been thoroughly characterized in preclinical studies. The effective anxiolytic dose in the plus-maze is 10-25 mg/kg (Lister 1987; File and Aranko 1988; Shumsky and Lucki 1994). […] However, it was discovered animals develop a tolerance to the motor depression with repeated daily administration of CDP for several days (Shumsky and Lucki 1994). […] While CLAV has no effect on motor activity it was necessary to treat an equal number of rats with daily injections of CLAV (100 ng/kg) to insure a balanced experimental design. In addition there was a third group of rats (n=6) receiving daily injections of saline vehicle. The study reported in Section II tested CLAV at 1 μg/kg in the plus-maze. […] For this reason CLAV was tested at 100 ng/kg in these studies.

[2] = test system: male Syrian golden hamsters; assay: golden hamster seed finding model of anxiety; type: in vivo, Mesocricetus auratus
From the text: Clavulanic acid (CLAV) is structurally similar to the beta-lactam antibiotics. A most robust and simple bioassay for screening beta-lactams for CNS activity is the golden hamster seed finding model of anxiety. Briefly, hamsters are deprived of food overnight. The following day they are exposed to the additional stress of being taken from their home cage and placed in a novel environment for a few minutes. This manipulation stimulates the release of the stress hormone cortisol (FIG. 13). During their absence from the home cage, sunflower seeds are hidden under the bedding in one of the corners. When returned to the home cage, hamsters routinely scramble along the walls for 1-2 min before settling down, locating and eating the seeds. However, animals treated with the benzodiazepine anxiolytic chlordiazepoxide find seeds in less than 10 sec.
Male, Syrian golden hamsters (Mesocricetus auratus) (120-130 g) obtained from Harlan Sprague-Dawley Laboratories (Indianapolis, Ind.) were housed individually in Plexiglas cages (24 cm×24 cm×20 cm), maintained on a reverse light:dark cycle (14L: 10D; lights on at 19:00 hr) and provided food and water ad libitum. A range of concentrations of CLAV (saline vehicle, 0.1, 1.0, 10, 100 1,000 ng/kg) were tested in six groups of hamsters (4-8/group)(FIG. 1). All tests were conducted during the dark phase of the circadian cycle under dim red illumination. Prior to testing all animals were fasted for 20-24 hrs. Ninety min after intraperitoneal (IP) injection of drug, animals were taken from their home cage and placed into a holding cage for 2 min. During their absence, six sunflower seeds were buried under the bedding in one corner of their home cage. Animals were placed back into their home cage randomly facing any one of the empty corners and timed for their latency to find the seeds in a five min observation period. Latency times were analyzed with a one-way ANOVA followed by Scheffe's post hoc tests. Assumption of equal variances was tested (Hartley's F-max=2.1 p>0.05)
It was hypothesized that CLAV functioned as an anxiolytic in the seed finding assay by blocking NAALADase activity in the brain. If this notion were true then it would be predicted that drugs known to block NAALADase should also enhance seed finding. To this end, animals were treated with N-acetyl-beta-aspartyl-glutamic acid (beta-NAAG), a competitive inhibitor of NAALADase (Serval et al., 1992) and tested in the seed finding model of anxiety. The study was similar to that outlined in Section I with one notable exception. […] Beta-NAAG (FW 304) was given in a dose of 3 ng in a volume of 1 μl saline ICV. The average adult hamster brain weights ca. 1.2 g of which 22% is extracellular fluid. The estimated beta-NAAG concentration was 11 ng/ml or 36 nM.
Two groups of six animals each were fasted overnight as previously described and tested the following day. One group was treated with beta-NAAG and the other saline vehicle and one hr later timed for latency to find the hidden sunflower seeds. A Student t-test for unpaired data was used for statistical comparisons.

male Wistar rats [3] = assay: general motor activity in an open field; type: in vivo, rat; settings: 1.0 μg/kg IP, after the plus-maze test, vs vehicle
Description: Immediately after each of the plus-maze tests reported above in Section II, animals were tested for general motor activity in an “open field.” Animals were placed into a large clean Plexiglas cage (48×32×40 cm) devoid of bedding. This open field was delineated into equal quadrants by tape on the underside of the cage. Animals were scored for motor activity by counting the number of quadrants traversed in 1 min.

rats = assay: Morris water maze, cue navigation; type: in vivo, rat
Description: On the day following the last day (Day 4) of spatial navigation, animals were tested for cue navigation. In these tests, the platform was raised above water level. One hr before testing animals were treated with CLAV or saline vehicle. The same animals treated with CLAV during spatial navigation were treated with CLAV for cue navigation. Animals were run through a series of two min trials with 45 min between trials. At each trial, the platform was moved to a different quadrant. The cue navigation study was identical to the spatial navigation except the platform was visible and the testing was done over five consecutive trials done on a single day. Animals were scored for latency to find the platform, percent time spent in each quadrant, path distance and swim speed for all testing periods.

[4] = test system: gram negative beta-lactamase enzymes; settings: cited from earlier work
[5] = approximately 7-10 mg/kg/day, intravenous with ticarcillin; cited from earlier work
[6] = in vivo, cited from earlier work
[7] = 1.0 μg/kg IP, 90 min, vs vehicle
[8] = daily IP 7 days, CLAV 100 ng/kg, CDP 10 mg/kg, vs vehicle

CO[C@@]1(NC(=O)C(C(=O)O)c2ccc(O)cc2)C(=O)N2C(C(=O)O)=C(CSc3nnnn3C)CO[C@@H]21 (stereo partly drawn) [Moxalactam, 7-β-[2-carboxy-2-(4-hydroxyphenyl)acetamido]-7α-methoxy-3-[[(1-methyl-1H-tetrazol-5-yl)thio]methyl]-1-oxa-1-dethia-3-cephem-4-carboxylic acid]
anxiolytic action (male Wistar rats [1]; i.p. at 50 micrograms/kg, rats): acts as an anxiolytic in rats
change of seed finding time ([2]; dose not given): reduction in seed finding time from minutes to seconds

O=C(O)[C@H]1/C(=C/CO)O[C@@H]2CC(=O)N21 [CLAV, clavulanic acid]
open field activity (quadrants traversed in 1 min) (male Wistar rats [3]): no significant differences
percentage of time spent in each quadrant vs vehicle (rats; any quadrant on any trial): no significant difference between treatments
latency to find the platform (rats; visible platform, five trials): no main effect for treatments
distance traveled to find the platform (rats; vs vehicle): not significantly different
activity in the plus-maze (summary) (male Wistar rats [1]; 1 μg/kg): anxiolytic activity
latency to enter the dark (closed arm) (male Wistar rats [1]; [7]): stayed in the starting open light position longer
open arm entries (male Wistar rats [1]; [7]): increased movement into the lighted open arms
time spent in the open arm (male Wistar rats [1]; [7]): significantly increased
open arm entries (male Wistar rats [1]; daily IP 7 days, CLAV 100 ng/kg, CDP 10 mg/kg): no significant difference between treatments
latency to enter the dark closed arms (male Wistar rats [1]; [8]): significantly greater
time spent exposed to light in the open arms (male Wistar rats [1]; [8]): significantly greater
inhibition of gram negative beta-lactamase enzymes [4]: 15 to 34 nM
adverse reactions or contraindications [5]: no reported adverse reactions or contraindications
latency to find the sunflower seeds vs vehicle ([2]; 1 ng/kg IP, 90 min): not significantly different from vehicle control
estimated concentration in extracellular water at the 10 ng/kg dose ([2]; 1.25 ng in 27.5 ml): 0.045 ng/ml and about 200 pM
effective dose (maximal efficacy) in the seed finding test ([2]; IP): 0.01 µg/kg
latency to find the sunflower seeds ([2]; doses of 10 ng and above, IP, 90 min, vehicle 104 sec): less than 8.0 sec
estimated concentration in the brain at the 10 ng/kg dose ([2]; from CSF/plasma ratio 0.25): around 50 pM
oral activity and stability ([6]; po): orally active and stable
CSF/plasma ratio [6]: 0.25
elimination half-life [6]: just under two hours
passage of the blood-brain barrier [6]: readily passes the blood-brain barrier
CSF/plasma ratio ([6]; listed as Clavulanic acid): around 0.25
